Experimental data as given in US10858364B2, “Imidazopyrazine inhibitors of Bruton's tyrosine kinase” (Acerta Pharma B.V., priority 2016, dated 2020).

Experiments:
[1] = molecular target: BTK wild type (BTK-WT) (Homo sapiens (Human), UniProt Q06187); assay: BTK-WT LanthaScreen, inhibition constants from IC50 over time; assay type: binding
Description: Inhibitory activity on BTK wild type (BTK-WT) and BTK Cys481Ser mutant (BTK-C481S) was measured using the LanthaScreen assay technology from ThermoFisher according to manufacturer's protocol. BTK-WT or BTK-C481 S (Genscript) were mixed and diluted with Eu-anti-GST antibody (Invitrogen) in Kinase buffer (50 mM Hepes pH 7.5+10 mM MgCl2+1 mM EGTA+0.01% Brij-35) to 15 and 6 nM, respectively. Final concentration in the assay for enzyme and antibody are 5 and 2 nM, respectively. Tracer (Kinase Tracer 236, Invitrogen) is diluted in Kinase buffer to 90 nM. Final concentration in the assay is 30 nM. Serial dilutions log 10 from 1 mM to 3.16 nM of test compounds are made in 100% DMSO. The dilutions in DMSO are then diluted 33-fold in Kinase buffer (50 mM Hepes pH 7.5+10 mM MgCl2+1 mM EGTA+0.01% Brij-35). The assay is performed as follows: 5 μL/well of BTK-WT or BTK-C481S enzyme and EU-anti-GST antibody dilution is mixed with 5 μL/well tracer dilution and 5 μL/well of compound dilution in Kinase buffer. Final compound concentration in the assay ranged from 10 μM to 0.316 nM, with 1% DMSO final concentration in assay. Mixture was incubated at room temperature in the dark and at different times of incubation (5 min, 10 min, 20 min, 30 min, 40 min, 60 min, 90 min, 120 min, 180 min and 300 min) the TR-FRET signal was read at 615 nm and 665 nm. The ratio 665/615 was used to calculate values expressed as percentage of the difference in readout (S/N) of the controls with and without Tracer. IC50 values for each timepoint were determined by curve fitting of the experimental results in Dotmatics. […] The kinetics in covalent binding are determined by affinity of the compound to BTK and by the reactivity of the electrophile. Using the data for M27 from the LanthaScreen assay on BTK-WT, the inhibition constants can be calculated for the parent and the metabolite. […] The Ki and kinact parameters were derived from IC50 values over time, according to the method of Krippendorff et al (J Biomol Screen. 2009, 14(8):913-23) with measured Km=102 nM for the tracer used in the assay.

[2] = molecular target: CYP2D6 (Homo sapiens (Human), UniProt P10635); assay: CYP inhibition, CYP2D6; assay type: in vitro ADME
Sequence of CYP2D6 (P10635 whole entry): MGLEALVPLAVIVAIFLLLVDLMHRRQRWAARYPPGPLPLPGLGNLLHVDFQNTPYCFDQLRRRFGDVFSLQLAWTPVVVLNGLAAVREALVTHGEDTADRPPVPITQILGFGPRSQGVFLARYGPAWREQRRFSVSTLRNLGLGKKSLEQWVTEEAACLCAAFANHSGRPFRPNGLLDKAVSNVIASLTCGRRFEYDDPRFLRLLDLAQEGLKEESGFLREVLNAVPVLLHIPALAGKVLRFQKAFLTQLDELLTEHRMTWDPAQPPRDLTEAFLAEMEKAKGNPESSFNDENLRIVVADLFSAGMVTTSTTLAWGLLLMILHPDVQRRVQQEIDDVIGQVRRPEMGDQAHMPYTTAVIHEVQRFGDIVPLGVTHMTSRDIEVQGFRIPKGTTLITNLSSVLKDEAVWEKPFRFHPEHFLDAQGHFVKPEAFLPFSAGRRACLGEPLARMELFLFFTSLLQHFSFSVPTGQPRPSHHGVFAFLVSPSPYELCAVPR

[3] = molecular target: CYP2C9 (Homo sapiens (Human), UniProt P11712); assay: CYP inhibition, CYP2C9; assay type: in vitro ADME
Sequence of CYP2C9 (P11712 whole entry): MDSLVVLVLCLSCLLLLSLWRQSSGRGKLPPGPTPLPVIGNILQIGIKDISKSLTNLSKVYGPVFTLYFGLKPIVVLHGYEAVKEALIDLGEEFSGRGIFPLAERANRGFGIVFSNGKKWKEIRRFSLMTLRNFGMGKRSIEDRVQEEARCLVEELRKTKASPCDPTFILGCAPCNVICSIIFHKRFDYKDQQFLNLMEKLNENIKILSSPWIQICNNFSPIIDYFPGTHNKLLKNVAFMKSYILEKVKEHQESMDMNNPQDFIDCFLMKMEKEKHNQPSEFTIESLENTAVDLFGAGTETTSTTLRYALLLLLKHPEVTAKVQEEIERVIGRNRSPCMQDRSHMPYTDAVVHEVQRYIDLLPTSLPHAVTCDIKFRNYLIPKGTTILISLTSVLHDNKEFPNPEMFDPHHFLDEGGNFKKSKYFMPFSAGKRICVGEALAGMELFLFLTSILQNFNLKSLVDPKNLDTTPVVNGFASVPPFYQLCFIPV

[4] = molecular target: CYP2C8 (Homo sapiens (Human), UniProt P10632); assay: CYP inhibition, CYP2C8; assay type: in vitro ADME
Sequence of CYP2C8 (P10632 whole entry): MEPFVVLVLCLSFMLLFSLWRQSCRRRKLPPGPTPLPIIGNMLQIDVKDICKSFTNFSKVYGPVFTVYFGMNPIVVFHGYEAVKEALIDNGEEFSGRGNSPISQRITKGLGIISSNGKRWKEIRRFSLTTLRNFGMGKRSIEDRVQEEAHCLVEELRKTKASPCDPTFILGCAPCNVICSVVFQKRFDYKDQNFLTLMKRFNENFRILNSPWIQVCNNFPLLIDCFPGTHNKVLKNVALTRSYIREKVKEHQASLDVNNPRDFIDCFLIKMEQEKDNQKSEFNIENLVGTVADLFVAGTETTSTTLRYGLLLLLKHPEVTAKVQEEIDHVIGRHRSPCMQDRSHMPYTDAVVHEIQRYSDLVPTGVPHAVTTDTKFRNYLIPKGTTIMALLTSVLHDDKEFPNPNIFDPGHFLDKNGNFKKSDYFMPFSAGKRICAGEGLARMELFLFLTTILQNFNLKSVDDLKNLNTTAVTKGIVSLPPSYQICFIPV

[5] = molecular target: T1, BTK (Homo sapiens (Human), UniProt Q06187); assay: DiscoveRx Kd dose response, BTK; assay type: binding
T1 sequence (Q06187 whole entry): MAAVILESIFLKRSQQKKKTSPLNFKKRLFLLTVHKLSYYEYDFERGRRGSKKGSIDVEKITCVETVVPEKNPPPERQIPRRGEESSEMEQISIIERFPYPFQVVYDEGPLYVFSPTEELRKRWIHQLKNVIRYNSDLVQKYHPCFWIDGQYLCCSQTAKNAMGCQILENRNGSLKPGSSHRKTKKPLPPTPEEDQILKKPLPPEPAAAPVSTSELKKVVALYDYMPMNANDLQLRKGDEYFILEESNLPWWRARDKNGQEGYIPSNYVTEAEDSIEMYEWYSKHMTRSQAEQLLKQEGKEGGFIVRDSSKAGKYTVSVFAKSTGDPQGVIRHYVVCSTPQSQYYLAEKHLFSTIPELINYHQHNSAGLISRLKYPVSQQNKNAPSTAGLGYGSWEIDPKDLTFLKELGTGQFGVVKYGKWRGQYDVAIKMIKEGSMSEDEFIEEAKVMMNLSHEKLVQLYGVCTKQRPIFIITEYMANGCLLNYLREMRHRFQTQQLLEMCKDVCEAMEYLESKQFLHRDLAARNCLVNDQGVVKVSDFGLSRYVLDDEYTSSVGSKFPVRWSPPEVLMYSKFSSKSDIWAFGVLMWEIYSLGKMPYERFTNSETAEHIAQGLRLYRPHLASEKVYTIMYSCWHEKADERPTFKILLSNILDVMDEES
Description: Kinase profiling was performed with M27 was done at DiscoveRx at a single dose of 1 μM on all available kinases (KINOMEscan). The overall kinase selectivity score is in Table 6. […] Kinases inhibited >65% at 1 μM for M27 were followed up with a dose response at DiscoveRx. The M27 had IC50 values <1 μM for almost the same set of kinases with exception of TXK, but with additional inhibition of BRK (PTK6).

[6] = molecular target: T1, BTK; assay: BTK IMAP with ATP competition and variable pre-incubation; assay type: biochemical
Description: BTK enzyme activity with ATP competition was measured using the IMAP (immobilized metal ion affinity-based fluorescence polarization) assay. BTK enzyme (Millipore) was diluted to 16 nM, respectively in Kinase Reaction (KR) buffer (10 mM Tris-HCl, 10 mM MgCl2, 0.01% Tween-20, 0.1% NaN3, 1 mM DTT, 2 mM MnCl2, pH 7.5). Serial dilutions […] from 1 mM to 31.6 nM of test compounds were made in 100% DMSO. The dilutions in DMSO were then diluted 25-fold in KR-buffer. Final compound concentrations ranged from 10 μM to 0.316 nM. The assay is performed as follows: 5 μL/well of test compound in KR buffer (final DMSO concentration in the assay is 1%) was mixed with 5 µl/well of BTK or ITK enzyme (final concentration in the assay was 4 and 8 nM for BTK and ITK, respectively). Test compounds and kinase enzyme were pre-incubated 0, 30, or 60 min, before adding 5 μL/well of 200 nM Fluorescein labeled substrate peptide (Blk/Lyntide substrate, Molecular Devices) in KR-buffer. Final peptide substrate concentration in assay was 50 nM. The kinase assay was started by adding 5 μL/well of 20, 100, or 400 μM ATP in KR-buffer (final ATP concentration was 5, 25, or 100 μM ATP). Following incubation for 2h at room temperature the enzyme reaction was stopped by adding 40 μL/well IMAP Progressive Binding Solution (Molecular Devices), according to product instructions, using 60% lx buffer A and 40% lx buffer B with 800× diluted beads). After 60 min incubation at room temperature in the dark the FP signal was read. Fluorescence at 535 nm was measured using parallel and perpendicular filters to determine differences in rotation due to binding of the phosphorylated substrate peptide to the beads. Values were calculated as percentage of the difference in readout (AmPi) of the controls with and without ATP. IC50 values were determined by curve fitting of the experimental results using Dotmatics. […] M27 was tested in the BTK IMAP ATP competition assays with variable pre-incubation times (0, 30, and 60 minutes) and ATP concentrations (5, 25 and 100 μM). The results in Table 2 and FIG. 2 confirm that M27 is covalent inhibitors of BTK. […] Furthermore, there is loss of ATP competition following pre-incubation of BTK with M27, a result that is typical for compounds that bind covalently.

Sequence of BTK wild type (BTK-WT) (Q06187 whole entry): as above

CC#CC(=O)NCCCC(=O)c1nc(-c2ccc(C(=O)Nc3ccccn3)cc2)c2c(N)nccn12 [Formula (I), 4-(8-amino-3-(4-(but-2-ynamido)butanoyl)imidazo[1,5-a]pyrazin-1-yl)-N-(pyridin-2-yl)benzamide]
kinact/KI [1]: 16500 M⁻¹ s⁻¹
kinact ([1]; derived from IC50 values over time (Krippendorff method)): 0.0031 ± 0.0003 s⁻¹
Ki ([1]; derived from IC50 values over time (Krippendorff method), tracer Km=102 nM): 0.188 ± 0.009 µM
CYP2D6 inhibition [2]: does not inhibit
CYP2C9 inhibition [3]: weak inhibitor
CYP2C8 inhibition [4]: weak inhibitor
Kd [5]: 0.029 µM
IC50 ([6]; 5 μM ATP, 0 minute pre-incubation): 0.0273 µM
IC50 ([6]; 5 μM ATP, 30 minutes pre-incubation): 0.0126 µM
IC50 ([6]; 5 μM ATP, 60 minutes pre-incubation): 0.0069 µM
IC50 ([6]; 25 μM ATP, 0 minute pre-incubation): 0.0724 µM
IC50 ([6]; 25 μM ATP, 30 minutes pre-incubation): 0.0181 µM
IC50 ([6]; 25 μM ATP, 60 minutes pre-incubation): 0.0095 µM
IC50 ([6]; 100 μM ATP, 0 minute pre-incubation): 0.101 µM
IC50 ([6]; 100 μM ATP, 30 minutes pre-incubation): 0.0237 µM
IC50 ([6]; 100 μM ATP, 60 minutes pre-incubation): 0.0108 µM
